{
  "source": "patent US20090312373A1",
  "about": "“METHODS FOR THE TREATMENT OF CANCER USING PIPERLONGUMINE AND PIPERLONGUMINE ANALOGS” (The General Hospital Corporation, priority 2008, published 2009)",
  "key": {"p53 [1]": {"tested_on": "p53", "assay": "Western blot of p53 and p53 target expression in human cancer cells", "assay_type": "cell-based", "source_text": "Thus, piperlongumine is a p53 activator as well as an activator for proapoptotic targets."}, "human cancer cell lines": {"tested_on": "human cancer cell lines", "assay": "Cell growth inhibition and cell death/apoptosis in a panel of human cancer cell lines", "assay_type": "cell-based", "source_text": "We evaluated the ability of piperlongumine to induce apoptosis in a panel of human cancer cells (>40 human cancer cell lines) including cell lines with both wt and mutant p53 status, including non-functional mutants (See Table 1)."}, "[2]": {"tested_on": "EJ human bladder cancer cell xenografts", "assay": "EJ human bladder cancer xenograft in nude mice", "assay_type": "in vivo, mouse", "protocol": "We tested piperlongumine in colon tumor, breast, melanoma or bladder tumor xenograft-bearing mice to evaluate the anti-tumor effect of piperlongumine. We examined EJ human bladder cancer cell xenografts (non-functional p53) to evaluate anti-tumor effects. A total of 2×10^6 EJ cells or SW480 cells were implanted subcutaneously on opposite site flanks in each of six nude/nude mice in each group. When tumor masses grew to ˜5-10 mm in diameter, piperlongumine was administered intraperitoneally (28 ug per each intraperitoneal administration, total 1.2 mg/kg) every 48 hours for 12 days (6 times total)."}, "[3]": {"tested_on": "survival proteins (Bc12, Survivin, XAIP)", "assay": "Exon gene array and Western blot of survival proteins in U2OS and EJ cells", "assay_type": "cell-based, human", "settings": "variety of concentrations", "protocol": "Downstream target genes of piperlongumine (CT-007) were identified using an human exon gene array analysis of U2OS and EJ cancer cell lines (FIG. 12). In addition, the results from the gene array analysis were confirmed by Western blot (FIG. 13; See also Example 12 below).\n(§1) U2OS cells and EJ cells were exposed to piperlongumine (10 μM) and aliquots of the cells were taken at 6 and 12 hours and lysed to determine the level of Twist expression. […] HCT116 cells (p53-wt cells) were exposed to piperlongumine and aliquots of the cells were taken at 6 and 12 hours and lysed to determine the level of CDIP expression. […] U2OS cells (p53-wt cells) and EJ cells (non-functional p53) were exposed to various concentrations of piperlongumine (piper) and aliquots of the cells were lysed to determine the level of survival protein expression."}, "p53 [4]": {"tested_on": "p53", "assay": "p53 acetylation Western blot in U2OS cells", "assay_type": "cell-based, human", "settings": "6 hours", "protocol": "U2OS cells were treated with piperlongumine (SP), the HDAC inhibitor TSA (trichostatin A ([…])) or the control DMSO for 6 hours. Cell extracts were fractionated in SDS-PAGE gel and analyzed by western blot."}, "[5]": {"tested_on": "EJ bladder carcinoma cells and HCT116 colon carcinoma cells", "assay": "Cell death in transformed cancer cells", "assay_type": "cell-based, human", "settings": "2.5 μM and 10 μM"}, "[6]": {"tested_on": "diploid fibroblasts, keratinocytes and breast epithelial cells", "assay": "Cell death in non-transformed control cells", "assay_type": "cell-based"}, "Twist": {"tested_on": "Twist", "assay": "Twist expression in U2OS and EJ cells", "assay_type": "cell-based, human", "settings": "10 μM, 6 and 12 hours", "protocol": "as §1"}, "[7]": {"tested_on": "patient-derived breast cancer tumor samples", "assay": "Histoculture Drug Response Assay (HDRA), breast", "assay_type": "cell-based, human", "source_text": "(§2) Piperlongumine (SP2007) was compared to a variety of known anti-cancer agents in a Histoculture Drug Response Assay (HDRA). HDRA is an assay that provides a reliable approach to determine the profile of in vivo chemo-sensitivity in cancer patients. The assay allows for a three-dimensional culture, the testing of patient tumor sensitivity, the evaluation of treatment option for individual patients with solid tumor types and a high correlation to clinical drug sensitivity (Flowers J L et al., Cancer Chemother. Pharmacol. 2003 September 52 (3): 253-261). The assays were performed by Anti-cancer Inc., (San Diego, Calif.). An average of twenty samples was tested for each tumor type."}, "[8]": {"tested_on": "patient-derived colon cancer tumor samples", "assay": "Histoculture Drug Response Assay (HDRA), colon", "assay_type": "cell-based, human", "source_text": "as §2"}, "[9]": {"tested_on": "patient-derived osteocarcoma samples", "assay": "Histoculture Drug Response Assay (HDRA), osteosarcoma", "assay_type": "cell-based, human", "source_text": "as §2"}, "MMTV-PyVT mammary tumor": {"tested_on": "MMTV-PyVT mammary tumor", "assay": "MMTV-PyVT spontaneous mammary tumor mouse model", "assay_type": "in vivo", "source_text": "MMTV-PvVT (FVB/N-Tg) transgenic mice develop multifocal mammary tumor (from hyperplasia to metastatic) with a high incidence of metastasis (Mice were obtained from the NCI repository). This mouse model has been widely used for the correlation studies of human cancer (Guy et al., Moll. Cell. Biol. 12: 954-961, 1992). In addition, this onco-mouse model has been used to evaluate the effectiveness of potential drug therapies. Generally, due to aggressiveness of tumor growth and spread in this mouse-model, only a combination of chemo-drugs is effective in tumor growth inhibition. MMTV-PyVT mice were maintained until mammary tumor size reached to 6 mm, and then piperlongumine (2.4 mg/kg) or vehicle (DMSO) was given daily by i.p. for 13 days. Tumor size was measured every 4 days (See FIGS. 31 and 32).\nWe compared the anti-tumor activity of piperlongumine (SP2007) with taxol, a well known chemo drug, in the MMTV-PyVT tumor mouse model as described above (8 mice per group). When tumor sizes grew to ˜5-6 mm in diameter, SP2007 (2.4 mg/kg/day) or Taxol (Paclitaxel, 10 mg/kg/day) was administered intraperitoneally (I.P.) daily for two weeks. After two weeks treatment, mice were sacrificed, and mammary tumors excised and the tumor sizes measured. […] The size of the grossly dissected tumors was measured using the formula: mean diameter=(A+B)/2."}, "CDIP": {"tested_on": "CDIP", "assay": "Western blot of CDIP expression in U2OS cells containing wt-p53", "assay_type": "cell-based, human", "settings": "5 μM and 10 μM", "protocol": "Western blot analyses of CDIP expression in human cancer cells containing wt-p53 treated with piperlongumine (SP2007) (5 μM and 10 μM) is shown in FIG. 38. Beta-actin expression was used as a loading control."}, "[10]": {"tested_on": "normal human breast epithelial cells", "assay": "DNA damage markers in normal human breast epithelial cells", "assay_type": "cell-based", "settings": "SP2007 10 μM or 20 μM", "source_text": "The primary breast epithelial cells obtained from patients undergoing reconstructive plastic surgery."}, "[11]": {"settings": "2.4 mg/kg daily i.p. for 13 days"}},
  "note": "“Also recorded” adds a separate entry of the source.",
  "data": [
    {"smiles": "COc1cc(/C=C/C(=O)N2CCC=CC2=O)cc(OC)c1OC", "note": "[piperlongumine, N-(3,4,5,-trimethoxycinnamoyl)-Δ^3-piperidine-2-one]", "values": [
      {"measurement": "Puma expression", "setting": "p53 [1]; human cancer cells", "value": "significantly induced"},
      {"measurement": "p53 expression (Western blot)", "setting": "p53 [1]; relatively low concentrations, U2OS and HCT116 human cancer cells", "value": "significantly induced"},
      {"measurement": "sub-G1 apoptotic population of cells", "setting": "human cancer cell lines; HCT116 cells", "value": "increased"},
      {"measurement": "potencies for tumor cell growth inhibition and cell death/apoptosis", "setting": "human cancer cell lines; various human cancer cells, regardless of p53 status", "value": "2.5 to 20", "unit": "µM"},
      {"measurement": "anti-tumor effect", "setting": "[2]; 28 ug i.p. every 48 hours for 12 days (total 1.2 mg/kg), compared to DMSO", "value": "significant anti-tumor effects"},
      {"measurement": "blood vessel formation (angiogenesis) in the tumors", "setting": "[2]; tumor mice", "value": "strongly inhibited"},
      {"measurement": "expression of apoptosis genes (p21, PUMA, Caspase 3) in tumor-mice", "setting": "[2]; tumor mice", "value": "enhanced"},
      {"measurement": "levels of expression of survival proteins", "setting": "[3]", "value": "significantly repressed; also recorded: inhibits the expression of survival proteins"},
      {"measurement": "amount of acetylated p53", "setting": "p53 [4]", "value": "increased the amount of acetylated p53 to a level similar to TSA treated cells"},
      {"measurement": "total amount of p53", "setting": "p53 [4]; TSA 10 mM", "value": "did result in an increased"},
      {"measurement": "cell death in transformed cancer cells", "setting": "[5]", "value": "induced cell death"},
      {"measurement": "cell death/apoptosis in normal cells", "setting": "[6]", "value": "not in normal cells"},
      {"measurement": "Twist expression", "setting": "Twist", "value": "inhibits the expression of Twist"},
      {"measurement": "growth of patient-derived tumor samples", "setting": "[7]", "value": "inhibits growth"},
      {"measurement": "growth of patient-derived tumor samples", "setting": "[8]", "value": "inhibits growth"},
      {"measurement": "growth of patient-derived tumor samples", "setting": "[9]", "value": "inhibits growth"},
      {"measurement": "multiple tumor growth in spontaneous tumor model", "setting": "MMTV-PyVT mammary tumor; [11]", "value": "inhibits multiple tumor growth"},
      {"measurement": "tumor growth in spontaneous mouse model of breast cancer", "setting": "MMTV-PyVT mammary tumor; [11]", "value": "inhibits tumor growth"},
      {"measurement": "anti-tumor effect (mammary tumor size)", "setting": "MMTV-PyVT mammary tumor; 2.4 mg/kg/day i.p. daily for two weeks, compared to DMSO", "value": "Significant anti-tumor effects"},
      {"measurement": "health of mice during treatment", "setting": "MMTV-PyVT mammary tumor; SP2007 2.4 mg/kg/day i.p. for two weeks", "value": "remained healthy throughout the treatment time"},
      {"measurement": "secondary tumors", "setting": "MMTV-PyVT mammary tumor; SP2007 2.4 mg/kg/day or Taxol 10 mg/kg/day i.p. for two weeks", "value": "No secondary tumors were observed"},
      {"measurement": "CDIP expression", "setting": "CDIP", "value": "induces CDIP"},
      {"measurement": "phosphorylated gamma-H2AX, p53 and p21", "setting": "[10]", "value": "does not affect"}
    ]}
  ]
}
